Results on three compounds are retold here after publication PMC4774911, “Biochemical Screening of Five Protein Kinases from Plasmodium falciparum against 14,000 Cell-Active Compounds” (PLoS ONE, 2016).

“And” between values parts separate entries of the source, which are not always exact repeats. Equal values may be shown once. Where only a bound is given, the exact number is not on record here.

Some targets named below: ACVR2B (Homo sapiens, UniProt Q13705); CDK6 (Homo sapiens, UniProt Q00534); JAK2 (Homo sapiens, UniProt O60674); MAPK7 (Homo sapiens, UniProt Q13164); CAMK2A (Homo sapiens, UniProt Q9UQM7); CDK10 (Homo sapiens, UniProt Q15131); LIMK2 (Homo sapiens, UniProt P53671); PRKDC (Homo sapiens, UniProt P78527); RIOK2 (Homo sapiens, UniProt Q9BVS4); STK3 (Homo sapiens, UniProt Q13188).

Common to all, as to assay: biochemical
For a further test, the target named is T1, BMPR2 (Homo sapiens, UniProt Q13873).
T1 sequence (Q13873 1-1038): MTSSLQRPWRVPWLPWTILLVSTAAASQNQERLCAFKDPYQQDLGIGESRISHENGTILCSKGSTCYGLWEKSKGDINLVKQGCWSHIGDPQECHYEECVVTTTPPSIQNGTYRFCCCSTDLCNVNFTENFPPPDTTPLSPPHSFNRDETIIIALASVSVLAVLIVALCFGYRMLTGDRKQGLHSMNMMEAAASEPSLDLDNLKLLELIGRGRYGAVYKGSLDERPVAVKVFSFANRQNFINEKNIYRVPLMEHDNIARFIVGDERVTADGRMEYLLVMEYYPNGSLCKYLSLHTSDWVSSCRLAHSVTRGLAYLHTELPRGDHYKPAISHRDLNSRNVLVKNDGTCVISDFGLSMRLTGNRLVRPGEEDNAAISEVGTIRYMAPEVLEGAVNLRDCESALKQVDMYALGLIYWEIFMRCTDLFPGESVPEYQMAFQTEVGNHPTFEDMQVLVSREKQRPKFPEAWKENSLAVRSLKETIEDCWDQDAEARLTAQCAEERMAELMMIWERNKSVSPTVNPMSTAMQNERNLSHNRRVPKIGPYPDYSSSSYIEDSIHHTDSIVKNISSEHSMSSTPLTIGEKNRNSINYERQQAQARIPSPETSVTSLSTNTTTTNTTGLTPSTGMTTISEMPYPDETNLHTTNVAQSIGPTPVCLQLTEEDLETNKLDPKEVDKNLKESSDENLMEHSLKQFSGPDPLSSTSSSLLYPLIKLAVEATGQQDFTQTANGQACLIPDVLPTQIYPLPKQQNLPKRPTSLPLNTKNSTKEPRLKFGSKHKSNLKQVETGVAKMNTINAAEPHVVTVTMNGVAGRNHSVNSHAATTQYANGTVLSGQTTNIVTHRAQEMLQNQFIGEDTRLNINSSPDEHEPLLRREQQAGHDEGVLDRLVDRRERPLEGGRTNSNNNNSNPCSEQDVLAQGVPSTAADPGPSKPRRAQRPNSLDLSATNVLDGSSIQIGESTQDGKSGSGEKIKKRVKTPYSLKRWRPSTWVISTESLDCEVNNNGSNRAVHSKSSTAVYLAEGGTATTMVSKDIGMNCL

The next test addresses T2, NEK3 (Homo sapiens, UniProt P51956).
T2 sequence (P51956 1-506): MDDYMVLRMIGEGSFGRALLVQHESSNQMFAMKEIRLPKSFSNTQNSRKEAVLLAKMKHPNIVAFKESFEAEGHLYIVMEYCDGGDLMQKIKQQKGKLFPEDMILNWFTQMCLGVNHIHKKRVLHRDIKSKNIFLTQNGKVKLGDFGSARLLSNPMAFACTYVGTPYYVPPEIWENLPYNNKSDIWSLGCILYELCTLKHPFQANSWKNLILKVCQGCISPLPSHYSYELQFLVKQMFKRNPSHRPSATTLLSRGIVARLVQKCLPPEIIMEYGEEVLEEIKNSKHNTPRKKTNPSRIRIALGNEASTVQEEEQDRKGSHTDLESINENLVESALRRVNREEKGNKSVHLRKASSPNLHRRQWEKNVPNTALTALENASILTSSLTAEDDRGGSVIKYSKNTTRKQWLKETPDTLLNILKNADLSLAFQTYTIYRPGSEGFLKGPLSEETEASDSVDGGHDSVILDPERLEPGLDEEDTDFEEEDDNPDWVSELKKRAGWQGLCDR

The next test has as its target T3, NLK (Homo sapiens, UniProt Q9UBE8).
T3 sequence (Q9UBE8 1-527): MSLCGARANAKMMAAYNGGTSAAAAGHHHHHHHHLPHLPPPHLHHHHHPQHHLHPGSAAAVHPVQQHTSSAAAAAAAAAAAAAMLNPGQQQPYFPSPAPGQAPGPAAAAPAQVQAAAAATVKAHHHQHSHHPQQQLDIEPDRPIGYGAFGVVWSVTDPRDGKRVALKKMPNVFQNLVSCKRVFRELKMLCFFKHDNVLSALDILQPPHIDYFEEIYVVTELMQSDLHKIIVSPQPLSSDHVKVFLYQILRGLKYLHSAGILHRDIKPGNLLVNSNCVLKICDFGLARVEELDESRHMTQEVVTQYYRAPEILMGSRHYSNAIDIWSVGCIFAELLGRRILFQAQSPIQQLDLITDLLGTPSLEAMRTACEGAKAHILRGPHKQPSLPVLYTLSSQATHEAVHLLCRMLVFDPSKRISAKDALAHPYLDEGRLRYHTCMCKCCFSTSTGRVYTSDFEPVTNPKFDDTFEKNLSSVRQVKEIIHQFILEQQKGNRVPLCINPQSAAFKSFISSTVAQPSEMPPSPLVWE

Sequence of CDK6 (Q00534 whole entry): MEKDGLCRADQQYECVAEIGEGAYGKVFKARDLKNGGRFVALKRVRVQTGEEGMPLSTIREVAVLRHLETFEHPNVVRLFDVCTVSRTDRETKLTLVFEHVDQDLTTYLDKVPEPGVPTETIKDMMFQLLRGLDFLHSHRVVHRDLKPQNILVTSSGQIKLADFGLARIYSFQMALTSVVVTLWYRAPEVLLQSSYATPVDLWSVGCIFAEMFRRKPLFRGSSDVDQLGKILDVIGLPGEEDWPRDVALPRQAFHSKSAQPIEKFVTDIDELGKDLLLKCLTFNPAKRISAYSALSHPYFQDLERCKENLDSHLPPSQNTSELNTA
Sequence of MAPK7 (Q13164 whole entry): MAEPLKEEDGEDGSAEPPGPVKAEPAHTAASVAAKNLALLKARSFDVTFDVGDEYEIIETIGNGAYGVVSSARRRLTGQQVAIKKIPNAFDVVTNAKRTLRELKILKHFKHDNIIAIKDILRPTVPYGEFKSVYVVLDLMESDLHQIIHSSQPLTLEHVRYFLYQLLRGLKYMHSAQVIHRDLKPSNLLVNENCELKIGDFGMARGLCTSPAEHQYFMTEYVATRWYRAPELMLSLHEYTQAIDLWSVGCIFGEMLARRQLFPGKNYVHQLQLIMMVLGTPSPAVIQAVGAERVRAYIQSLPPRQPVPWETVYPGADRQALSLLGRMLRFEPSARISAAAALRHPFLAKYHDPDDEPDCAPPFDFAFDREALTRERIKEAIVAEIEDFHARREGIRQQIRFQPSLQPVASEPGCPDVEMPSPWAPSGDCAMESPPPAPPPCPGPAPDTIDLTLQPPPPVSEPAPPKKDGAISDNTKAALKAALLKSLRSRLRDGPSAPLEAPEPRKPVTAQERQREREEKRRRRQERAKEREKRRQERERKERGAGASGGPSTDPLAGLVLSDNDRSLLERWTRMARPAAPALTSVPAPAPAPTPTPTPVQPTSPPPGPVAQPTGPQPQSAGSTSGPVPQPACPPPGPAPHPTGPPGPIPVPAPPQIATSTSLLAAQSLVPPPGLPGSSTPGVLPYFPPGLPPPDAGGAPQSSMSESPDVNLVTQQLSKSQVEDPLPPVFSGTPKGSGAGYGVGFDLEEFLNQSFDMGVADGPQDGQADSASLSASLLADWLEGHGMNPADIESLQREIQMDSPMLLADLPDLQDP
Sequence of JAK2 (O60674 whole entry): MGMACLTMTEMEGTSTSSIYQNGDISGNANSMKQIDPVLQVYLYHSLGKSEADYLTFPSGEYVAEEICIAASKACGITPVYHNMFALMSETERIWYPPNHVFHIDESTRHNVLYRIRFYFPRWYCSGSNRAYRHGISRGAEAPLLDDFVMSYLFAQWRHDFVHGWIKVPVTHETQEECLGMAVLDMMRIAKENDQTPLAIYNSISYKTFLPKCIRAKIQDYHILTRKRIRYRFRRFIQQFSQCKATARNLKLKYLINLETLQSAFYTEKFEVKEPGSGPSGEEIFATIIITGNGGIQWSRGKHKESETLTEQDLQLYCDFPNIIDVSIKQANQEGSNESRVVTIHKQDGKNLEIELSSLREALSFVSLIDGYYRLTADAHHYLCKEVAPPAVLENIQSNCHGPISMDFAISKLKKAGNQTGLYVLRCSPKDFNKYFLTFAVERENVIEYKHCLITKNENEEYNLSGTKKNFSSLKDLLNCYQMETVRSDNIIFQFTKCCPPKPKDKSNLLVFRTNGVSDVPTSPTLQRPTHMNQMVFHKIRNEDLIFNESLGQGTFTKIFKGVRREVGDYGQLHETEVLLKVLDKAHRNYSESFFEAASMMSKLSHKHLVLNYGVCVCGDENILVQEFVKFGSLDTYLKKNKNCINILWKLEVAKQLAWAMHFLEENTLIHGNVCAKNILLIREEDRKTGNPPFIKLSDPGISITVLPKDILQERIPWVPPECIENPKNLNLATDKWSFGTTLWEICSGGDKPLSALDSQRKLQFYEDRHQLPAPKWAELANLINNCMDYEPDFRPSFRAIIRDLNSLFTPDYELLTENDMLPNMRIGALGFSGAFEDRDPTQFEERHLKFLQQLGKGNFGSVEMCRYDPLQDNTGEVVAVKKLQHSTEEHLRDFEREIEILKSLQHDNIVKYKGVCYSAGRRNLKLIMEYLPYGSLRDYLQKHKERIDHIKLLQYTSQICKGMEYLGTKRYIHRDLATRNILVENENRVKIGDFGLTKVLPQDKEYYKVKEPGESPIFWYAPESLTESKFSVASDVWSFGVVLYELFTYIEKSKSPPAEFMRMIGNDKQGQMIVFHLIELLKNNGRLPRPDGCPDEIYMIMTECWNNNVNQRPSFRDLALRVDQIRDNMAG
Sequence of LIMK2 (P53671 whole entry): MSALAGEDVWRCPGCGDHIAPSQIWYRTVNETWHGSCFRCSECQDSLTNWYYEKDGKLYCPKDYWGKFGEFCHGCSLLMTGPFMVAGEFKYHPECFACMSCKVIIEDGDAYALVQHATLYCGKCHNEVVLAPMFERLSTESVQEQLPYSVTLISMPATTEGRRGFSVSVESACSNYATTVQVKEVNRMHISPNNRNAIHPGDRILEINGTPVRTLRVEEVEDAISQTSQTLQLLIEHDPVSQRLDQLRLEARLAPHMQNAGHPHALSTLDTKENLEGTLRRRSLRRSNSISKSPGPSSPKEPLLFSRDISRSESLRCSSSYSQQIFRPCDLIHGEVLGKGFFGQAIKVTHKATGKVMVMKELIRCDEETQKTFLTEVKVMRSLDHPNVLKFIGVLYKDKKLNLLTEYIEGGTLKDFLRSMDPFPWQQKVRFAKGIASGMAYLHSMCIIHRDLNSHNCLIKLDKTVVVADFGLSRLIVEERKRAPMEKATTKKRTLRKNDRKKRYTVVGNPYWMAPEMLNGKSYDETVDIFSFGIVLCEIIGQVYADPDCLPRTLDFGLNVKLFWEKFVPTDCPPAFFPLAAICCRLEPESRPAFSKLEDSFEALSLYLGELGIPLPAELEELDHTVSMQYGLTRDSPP
Sequence of ACVR2B (Q13705 whole entry): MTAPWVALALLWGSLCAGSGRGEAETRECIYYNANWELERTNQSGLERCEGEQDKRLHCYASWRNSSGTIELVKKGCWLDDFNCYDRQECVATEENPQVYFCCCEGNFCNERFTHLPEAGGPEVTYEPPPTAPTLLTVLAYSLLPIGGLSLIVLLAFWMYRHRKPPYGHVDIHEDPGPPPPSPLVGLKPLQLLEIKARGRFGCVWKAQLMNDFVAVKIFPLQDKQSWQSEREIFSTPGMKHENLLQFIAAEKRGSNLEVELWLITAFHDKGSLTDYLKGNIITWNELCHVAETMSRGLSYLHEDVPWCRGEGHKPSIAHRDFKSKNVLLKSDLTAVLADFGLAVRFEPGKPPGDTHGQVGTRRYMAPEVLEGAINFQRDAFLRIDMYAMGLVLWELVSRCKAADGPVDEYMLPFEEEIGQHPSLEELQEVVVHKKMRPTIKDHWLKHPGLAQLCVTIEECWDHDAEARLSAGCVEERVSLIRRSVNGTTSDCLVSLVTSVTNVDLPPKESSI
Sequence of STK3 (Q13188 whole entry): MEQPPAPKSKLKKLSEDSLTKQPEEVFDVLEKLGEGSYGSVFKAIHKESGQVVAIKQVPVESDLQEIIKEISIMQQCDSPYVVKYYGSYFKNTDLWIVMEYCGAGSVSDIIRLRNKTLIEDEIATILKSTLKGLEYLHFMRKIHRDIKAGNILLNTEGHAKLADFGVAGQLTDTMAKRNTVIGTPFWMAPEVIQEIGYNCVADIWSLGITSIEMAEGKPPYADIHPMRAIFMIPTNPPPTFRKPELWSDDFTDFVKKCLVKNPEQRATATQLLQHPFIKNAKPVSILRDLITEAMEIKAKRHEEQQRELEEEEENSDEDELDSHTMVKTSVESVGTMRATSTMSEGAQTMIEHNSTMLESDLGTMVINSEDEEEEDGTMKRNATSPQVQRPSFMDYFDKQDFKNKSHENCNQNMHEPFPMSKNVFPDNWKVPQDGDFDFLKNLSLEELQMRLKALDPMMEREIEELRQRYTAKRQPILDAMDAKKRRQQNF
Sequence of CDK10 (Q15131 whole entry): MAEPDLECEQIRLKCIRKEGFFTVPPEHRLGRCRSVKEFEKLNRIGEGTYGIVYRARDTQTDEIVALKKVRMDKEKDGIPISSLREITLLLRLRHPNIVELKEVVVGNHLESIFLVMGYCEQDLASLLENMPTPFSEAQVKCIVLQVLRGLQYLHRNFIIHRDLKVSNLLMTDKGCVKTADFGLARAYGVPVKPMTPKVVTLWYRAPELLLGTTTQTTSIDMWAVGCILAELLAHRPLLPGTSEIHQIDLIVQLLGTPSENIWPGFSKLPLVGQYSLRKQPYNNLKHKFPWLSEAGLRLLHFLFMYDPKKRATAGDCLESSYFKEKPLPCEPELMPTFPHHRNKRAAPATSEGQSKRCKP
Sequence of CAMK2A (Q9UQM7 whole entry): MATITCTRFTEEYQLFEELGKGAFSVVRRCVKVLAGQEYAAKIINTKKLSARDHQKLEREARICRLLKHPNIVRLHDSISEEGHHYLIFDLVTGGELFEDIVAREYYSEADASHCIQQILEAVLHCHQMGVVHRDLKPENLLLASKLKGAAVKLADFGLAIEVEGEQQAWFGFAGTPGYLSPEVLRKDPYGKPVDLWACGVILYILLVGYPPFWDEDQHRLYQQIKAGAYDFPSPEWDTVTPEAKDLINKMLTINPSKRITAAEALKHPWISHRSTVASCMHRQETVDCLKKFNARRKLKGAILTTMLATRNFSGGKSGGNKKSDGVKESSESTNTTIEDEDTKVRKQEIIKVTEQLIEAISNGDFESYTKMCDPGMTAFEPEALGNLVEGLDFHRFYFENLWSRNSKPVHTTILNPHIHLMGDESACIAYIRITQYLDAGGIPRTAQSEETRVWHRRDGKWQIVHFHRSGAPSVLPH

On to `CN1CCN(c2ccc(Nc3ncc(C#N)c(Nc4ccccc4C(N)=O)n3)cc2)CC1.Cl` [TCMDC-134116], for which the IC50 at ACVR2B is greater than 20000 nM; against BMPR2, 4900 nM and 6700 nM; at CDK6, 160 nM and 180 nM; on JAK2 it was 510 nM and 330 nM; at MAPK7, 280 nM and 380 nM; on NEK3, 1100 nM. Moreover, the IC50 at NLK is 1600 nM and 1500 nM.
Turning to `Cl.NCC1(c2nc(-c3ccc(Cl)c(O)c3)c(-c3ccncc3)[nH]2)CCCCC1` [TCMDC-141154], the IC50 is greater than 20000 nM against CAMK2A; greater than 20000 nM at CDK10; greater than 20000 nM on CDK6; greater than 20000 nM against JAK2; greater than 20000 nM against LIMK2; 1100 nM and 1900 nM at MAPK7. Further, the IC50 against NEK3, against PRKDC, at RIOK2 and at STK3 was greater than 20000 nM throughout.
`CN(C)CC(O)COc1ccc(Nc2ncc([N+](=O)[O-])c(Nc3ccccc3O)n2)cc1.O=C(O)C(F)(F)F` (centres unmarked) [TCMDC-141399]: the IC50 on ACVR2B is greater than 20000 nM; against BMPR2 it was greater than 20000 nM; against CAMK2A, greater than 20000 nM; on CDK10, 1600 nM; on LIMK2 it was greater than 20000 nM; against NLK, greater than 20000 nM. Besides, the IC50 against PRKDC, on RIOK2 and against STK3 was greater than 20000 nM in each case.

One may read the IC50 as the concentration that inhibits the measured activity by half. A high value points to weaker potency.
